# In the supplement of paper PMC10307832:
# What was measured:
# Assay in all cases: relative viability (nuclei count vs DMSO), 5 days (fraction); higher = more cells survive
# [1] = test system: 201T
# Outline: (§1)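 Lung cancer cell lines, seeded in 1536-well plates, were treated the following day by pin tool with a single drug or with five library-drug doses (not always all listed) in √10 steps on top of a fixed anchor-drug dose. Cells were fixed and nuclei stained in one step after 5 days, and nuclei were counted. Relative viability is the nuclei count for treated wells divided by that for vehicle wells, reported as medians of duplicate plates.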
# [2] = test system: A-427
# Outline: as §1
# [3] = test system: COR-L23
# Outline: as §1
# [4] = test system: H3255
# Outline: as §1
# [5] = test system: LCLC-97TM1
# Outline: as §1
# [6] = test system: LK-2
# Outline: as §1
# [7] = test system: LU99A
# Outline: as §1
# [8] = test system: NCI-H1563
# Outline: as §1
# [9] = test system: NCI-H1650
# Outline: as §1
# [10] = test system: NCI-H1651
# Outline: as §1
# [11] = test system: NCI-H1793
# Outline: as §1
# [12] = test system: NCI-H1944
# Outline: as §1
# [13] = test system: NCI-H2347
# Outline: as §1
# [14] = test system: NCI-H23
# Outline: as §1
# [15] = test system: NCI-H460
# Outline: as §1
# [16] = test system: NCI-H650
# Outline: as §1
# [17] = test system: NCI-H727
# Outline: as §1
# [18] = test system: NCI-H838
# Outline: as §1
# [19] = test system: PC-14
# Outline: as §1
# [20] = test system: PC-3 [JPC-3]
# Outline: as §1
# [21] = test system: RERF-LC-KJ
# Outline: as §1
# [22] = test system: SW 1573
# Outline: as §1
smiles,measurement,setting,value
COc1cc(N2CCC(C(N)=O)CC2)ccc1Nc1nc(N)c(Cl)c(Nc2ccccc2S(=O)(=O)C(C)C)n1 [HG-5-88-01] + CS(=O)(=O)CCNCc1ccc(-c2ccc3ncnc(Nc4ccc(OCc5cccc(F)c5)c(Cl)c4)c3c2)o1 [Lapatinib] (partner 2 µM),relative viability,[1]; first compound 0.04 µM,1.03
same,relative viability,[1]; first compound 0.1265 µM,0.922
same,relative viability,[1]; first compound 0.4 µM,1.01
same,relative viability,[1]; first compound 1.265 µM,1.07
same,relative viability,[1]; first compound 4 µM,1.14
same,relative viability,[2]; first compound 0.04 µM,0.976
same,relative viability,[2]; first compound 0.1265 µM,0.984
same,relative viability,[2]; first compound 0.4 µM,0.978
same,relative viability,[2]; first compound 1.265 µM,1.04
same,relative viability,[2]; first compound 4 µM,0.589
same,relative viability,[3]; first compound 0.04 µM,0.998
same,relative viability,[3]; first compound 0.1265 µM,1.07
same,relative viability,[3]; first compound 0.4 µM,0.957
same,relative viability,[3]; first compound 1.265 µM,0.921
same,relative viability,[3]; first compound 4 µM,0.629
same,relative viability,[4]; first compound 0.04 µM,0.25
same,relative viability,[4]; first compound 0.1265 µM,0.249
same,relative viability,[4]; first compound 0.4 µM,0.244
same,relative viability,[4]; first compound 4 µM,0.212
same,relative viability,[5]; first compound 0.04 µM,0.999
same,relative viability,[5]; first compound 0.1265 µM,0.95
same,relative viability,[5]; first compound 0.4 µM,0.471
same,relative viability,[5]; first compound 1.265 µM,0.683
same,relative viability,[5]; first compound 4 µM,0.301
same,relative viability,[6]; first compound 0.04 µM,0.94
same,relative viability,[6]; first compound 0.1265 µM,0.841
same,relative viability,[6]; first compound 0.4 µM,0.792
same,relative viability,[6]; first compound 1.265 µM,0.42
same,relative viability,[6]; first compound 4 µM,0.885
same,relative viability,[7]; first compound 0.04 µM,1.03
same,relative viability,[7]; first compound 0.1265 µM,1.02
same,relative viability,[7]; first compound 0.4 µM,1
same,relative viability,[7]; first compound 1.265 µM,0.988
same,relative viability,[7]; first compound 4 µM,0.721
same,relative viability,[8]; first compound 0.04 µM,0.872
same,relative viability,[8]; first compound 0.1265 µM,0.941
same,relative viability,[8]; first compound 0.4 µM,1.03
same,relative viability,[8]; first compound 1.265 µM,0.882
same,relative viability,[8]; first compound 4 µM,1.24
same,relative viability,[9]; first compound 0.04 µM,0.785
same,relative viability,[9]; first compound 0.1265 µM,0.869
same,relative viability,[9]; first compound 0.4 µM,0.928
same,relative viability,[9]; first compound 1.265 µM,0.799
same,relative viability,[9]; first compound 4 µM,0.29
same,relative viability,[10]; first compound 0.04 µM,0.955
same,relative viability,[10]; first compound 0.1265 µM,1
same,relative viability,[10]; first compound 0.4 µM,0.796
same,relative viability,[10]; first compound 1.265 µM,0.863
same,relative viability,[10]; first compound 4 µM,0.882
same,relative viability,[11]; first compound 0.1265 µM,0.655
same,relative viability,[11]; first compound 0.4 µM,0.607
same,relative viability,[11]; first compound 1.265 µM,0.762
same,relative viability,[11]; first compound 4 µM,0.77
same,relative viability,[12]; first compound 0.04 µM,0.656
same,relative viability,[12]; first compound 0.1265 µM,0.84
same,relative viability,[12]; first compound 0.4 µM,0.78
same,relative viability,[12]; first compound 1.265 µM,0.861
same,relative viability,[12]; first compound 4 µM,0.648
same,relative viability,[13]; first compound 0.04 µM,1.02
same,relative viability,[13]; first compound 0.1265 µM,0.947
same,relative viability,[13]; first compound 0.4 µM,0.896
same,relative viability,[13]; first compound 1.265 µM,1.01
same,relative viability,[13]; first compound 4 µM,0.887
same,relative viability,[14]; first compound 0.04 µM,1.05
same,relative viability,[14]; first compound 0.1265 µM,1.23
same,relative viability,[14]; first compound 0.4 µM,0.874
same,relative viability,[14]; first compound 1.265 µM,1.05
same,relative viability,[14]; first compound 4 µM,0.393
same,relative viability,[15]; first compound 0.04 µM,0.963
same,relative viability,[15]; first compound 0.1265 µM,0.981
same,relative viability,[15]; first compound 0.4 µM,0.871
same,relative viability,[15]; first compound 1.265 µM,0.996
same,relative viability,[15]; first compound 4 µM,0.302
same,relative viability,[16]; first compound 0.04 µM,0.962
same,relative viability,[16]; first compound 0.1265 µM,1.01
same,relative viability,[16]; first compound 0.4 µM,1.14
same,relative viability,[16]; first compound 1.265 µM,0.943
same,relative viability,[16]; first compound 4 µM,0.475
same,relative viability,[17]; first compound 0.04 µM,0.834
same,relative viability,[17]; first compound 0.1265 µM,0.93
same,relative viability,[17]; first compound 0.4 µM,0.669
same,relative viability,[17]; first compound 1.265 µM,0.583
same,relative viability,[17]; first compound 4 µM,0.39
same,relative viability,[18]; first compound 0.04 µM,0.906
same,relative viability,[18]; first compound 0.1265 µM,0.952
same,relative viability,[18]; first compound 0.4 µM,0.797
same,relative viability,[18]; first compound 1.265 µM,0.708
same,relative viability,[18]; first compound 4 µM,0.498
same,relative viability,[19]; first compound 0.04 µM,0.358
same,relative viability,[19]; first compound 0.1265 µM,0.307
same,relative viability,[19]; first compound 0.4 µM,0.242
same,relative viability,[19]; first compound 1.265 µM,0.267
same,relative viability,[19]; first compound 4 µM,0.25
same,relative viability,[20]; first compound 0.04 µM,0.408
same,relative viability,[20]; first compound 0.1265 µM,0.466
same,relative viability,[20]; first compound 0.4 µM,0.39
same,relative viability,[20]; first compound 1.265 µM,0.434
same,relative viability,[20]; first compound 4 µM,0.25
same,relative viability,[21]; first compound 0.04 µM,0.833
same,relative viability,[21]; first compound 0.1265 µM,0.774
same,relative viability,[21]; first compound 0.4 µM,0.826
same,relative viability,[21]; first compound 1.265 µM,0.876
same,relative viability,[21]; first compound 4 µM,0.839
same,relative viability,[22]; first compound 0.04 µM,1.12
same,relative viability,[22]; first compound 0.1265 µM,0.86
same,relative viability,[22]; first compound 0.4 µM,0.989
same,relative viability,[22]; first compound 1.265 µM,1.06
same,relative viability,[22]; first compound 4 µM,1.04
